“Also recorded” adds a separate entry of the source. Like-named read-outs stand apart in the source and are kept apart here.
Columns and labels:
[1] = molecular target: T1, human α2A‐adrenoceptor (Homo sapiens, UniProt P08913); assay: ^3H‐rauwolscine whole cell competition binding, CHO‐α2A cells
T1 sequence (P08913 1-465): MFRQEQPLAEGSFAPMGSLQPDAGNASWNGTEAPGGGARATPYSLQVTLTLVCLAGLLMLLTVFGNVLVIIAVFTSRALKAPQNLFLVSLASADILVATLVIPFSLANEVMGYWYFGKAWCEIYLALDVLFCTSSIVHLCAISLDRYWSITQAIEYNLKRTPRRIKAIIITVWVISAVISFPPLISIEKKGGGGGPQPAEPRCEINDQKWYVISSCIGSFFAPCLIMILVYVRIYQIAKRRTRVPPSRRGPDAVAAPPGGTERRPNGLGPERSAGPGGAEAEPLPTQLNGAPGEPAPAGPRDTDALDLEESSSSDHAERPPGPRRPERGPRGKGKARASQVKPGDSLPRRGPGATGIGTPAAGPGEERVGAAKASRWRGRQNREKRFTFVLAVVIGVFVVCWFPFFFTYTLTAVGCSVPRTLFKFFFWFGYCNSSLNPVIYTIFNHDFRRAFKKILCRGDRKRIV

[2] = molecular target: T2, human α2B‐adrenoceptor (Homo sapiens, UniProt P18089); assay: ^3H‐RX821002 whole cell competition binding, CHO‐α2B cells
T2 sequence (P18089 1-450): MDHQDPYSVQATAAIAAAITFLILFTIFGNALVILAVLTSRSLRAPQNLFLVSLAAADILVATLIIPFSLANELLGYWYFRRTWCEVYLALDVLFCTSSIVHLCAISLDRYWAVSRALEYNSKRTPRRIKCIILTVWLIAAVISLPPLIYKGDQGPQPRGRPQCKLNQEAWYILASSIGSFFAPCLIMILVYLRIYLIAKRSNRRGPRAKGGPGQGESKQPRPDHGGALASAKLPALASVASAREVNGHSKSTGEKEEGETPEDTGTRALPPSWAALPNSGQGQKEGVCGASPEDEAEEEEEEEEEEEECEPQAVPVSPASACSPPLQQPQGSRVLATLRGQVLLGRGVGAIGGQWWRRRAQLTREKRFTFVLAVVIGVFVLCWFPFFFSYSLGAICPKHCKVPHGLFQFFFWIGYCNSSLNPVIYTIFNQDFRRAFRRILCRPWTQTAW

[3] = molecular target: human β2‐adrenoceptor (Homo sapiens, UniProt P07550); assay type: binding
Sequence of human β2‐adrenoceptor (P07550 whole entry): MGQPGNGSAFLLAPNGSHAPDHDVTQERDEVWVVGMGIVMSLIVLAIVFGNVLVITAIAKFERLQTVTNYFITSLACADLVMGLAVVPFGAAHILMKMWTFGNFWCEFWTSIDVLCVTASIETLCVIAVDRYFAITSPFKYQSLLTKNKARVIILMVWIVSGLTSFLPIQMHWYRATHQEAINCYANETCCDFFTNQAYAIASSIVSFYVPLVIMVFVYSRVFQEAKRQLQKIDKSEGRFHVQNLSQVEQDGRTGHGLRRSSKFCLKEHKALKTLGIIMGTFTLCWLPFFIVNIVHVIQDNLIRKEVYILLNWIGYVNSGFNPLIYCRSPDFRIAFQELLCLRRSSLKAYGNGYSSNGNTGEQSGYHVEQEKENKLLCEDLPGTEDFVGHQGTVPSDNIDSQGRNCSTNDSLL

[4] = molecular target: T3, human α2C‐adrenoceptor (Homo sapiens, UniProt P18825); assay: ^3H‐rauwolscine whole cell competition binding, CHO‐α2C cells
T3 sequence (P18825 1-462): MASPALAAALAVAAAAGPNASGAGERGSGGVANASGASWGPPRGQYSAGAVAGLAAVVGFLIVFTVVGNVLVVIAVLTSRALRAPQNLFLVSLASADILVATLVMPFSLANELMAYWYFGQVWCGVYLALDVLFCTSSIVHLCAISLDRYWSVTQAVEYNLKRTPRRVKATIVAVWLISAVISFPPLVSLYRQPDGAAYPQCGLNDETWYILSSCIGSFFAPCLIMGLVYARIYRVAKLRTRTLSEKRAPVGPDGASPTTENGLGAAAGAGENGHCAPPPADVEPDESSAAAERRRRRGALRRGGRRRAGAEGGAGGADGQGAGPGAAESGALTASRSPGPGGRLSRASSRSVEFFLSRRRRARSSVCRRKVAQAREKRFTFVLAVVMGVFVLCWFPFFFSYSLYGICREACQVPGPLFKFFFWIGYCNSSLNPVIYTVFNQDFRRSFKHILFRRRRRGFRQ

[5] = molecular target: T3, human α2C‐adrenoceptor; assay: ^3H‐RX821002 whole cell competition binding, CHO‐α2C cells; conditions: ^3H‐RX821002 as radioligand; living CHO cells; log values, mean ± s.e.mean
[6] = molecular target: T4, human β1‐adrenoceptor (Homo sapiens, UniProt P08588)
T4 sequence (P08588 whole entry): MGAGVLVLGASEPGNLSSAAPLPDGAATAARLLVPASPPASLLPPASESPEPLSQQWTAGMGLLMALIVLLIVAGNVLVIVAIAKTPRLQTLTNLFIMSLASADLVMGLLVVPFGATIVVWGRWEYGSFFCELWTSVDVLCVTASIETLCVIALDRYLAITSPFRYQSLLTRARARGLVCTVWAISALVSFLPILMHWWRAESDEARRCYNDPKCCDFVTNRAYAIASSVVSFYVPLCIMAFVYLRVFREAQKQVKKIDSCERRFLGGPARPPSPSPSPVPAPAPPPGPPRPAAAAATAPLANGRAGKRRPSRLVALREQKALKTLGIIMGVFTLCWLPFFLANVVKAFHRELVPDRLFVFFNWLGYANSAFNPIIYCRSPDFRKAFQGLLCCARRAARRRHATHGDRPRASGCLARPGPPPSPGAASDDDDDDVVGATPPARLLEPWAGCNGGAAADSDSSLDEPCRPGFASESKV

[7] = molecular target: T1, human α2A‐adrenoceptor; assay: ^3H‐RX821002 whole cell competition binding, CHO‐α2A cells; conditions: for Log KD α2A: ^3H‐RX821002 as radioligand, living CHO cells, log values, mean ± s.e.mean, ^app = apparent KD from extrapolated curve
[8] = molecular target: T2, human α2B‐adrenoceptor
[9] = molecular target: T3, human α2C‐adrenoceptor
[10] = molecular target: T1, human α2A‐adrenoceptor
[11] = molecular target: T2, human α2B‐adrenoceptor; assay: ^3H‐rauwolscine whole cell competition binding, CHO‐α2B cells
[12] = test system: human α2‐adrenoceptors; assay: ^3H‐rauwolscine whole cell binding, α2‐adrenoceptors stated without subtype; conditions: across α2 subtypes, this study; read-out: affinity for the α2‐adrenoceptors
[13] = molecular target: T1, human α2A‐adrenoceptor; assay: cell-based
[14] = molecular target: human α2A‐adrenoceptors; conditions: read-out: α2A affinity, cited from earlier work
[15] = molecular target: human α1A‐adrenoceptor; design: method as in PMID 32608144; conditions: identical whole cell method; ref [33]; read-out: α1A‐adrenoceptor affinity; cited from earlier work
[16] = molecular target: human α2C‐adrenoceptors; conditions: read-out: α2C affinity, cited from earlier work
[17] = test system: human α1A‐adrenoceptor; assay: whole cell binding at α1A‐adrenoceptor, identical technique, previous study [33]
[18] = molecular target: T3, human α2C‐adrenoceptor; assay: cell-based
[19] = molecular target: T4, human β1‐adrenoceptor; assay: cell-based
[20] = ^3H‐RX821002 as radioligand, living CHO cells, log values, mean ± s.e.mean, ^app = apparent KD
[21] = ^3H‐CGP12177 whole cell binding, log values, mean ± s.e.mean, ^app = apparent KD, 'no binding to' = log top concentration
[22] = ^3H‐RX821002 membrane binding, human receptors expressed in mouse cells, ref [30]
[23] = ^3H‐rauwloscine membrane binding, human receptors expressed in COS cells, ref [28]

## CN1CC[C@]2(CCN3CCc4c(oc5ccccc45)[C@@H]3C2)N(C)C1=O [MK‐912]
[1]
  Log KD α2A: −8.71 ± 0.05
  Selectivity ratio α2A vs α2B (higher affinity for α2A): 3.6
[2]; [20]
  Log KD α2B: −8.23 ± 0.11
[3]
  IC50 (log) β2, IC50>top concentration used: IC50>−4
[4]
  Log KD α2C: −9.82 ± 0.11
  Selectivity ratio α2A vs α2C (higher affinity for α2C): 12.9
  Selectivity ratio α2B vs α2C (higher affinity for α2C): 45.7
  selectivity for α2C over α2A: 13 fold
  selectivity for α2C over α2B: 46 fold
[4]; read-out: α2C‐affinity
  Kd: 0.15 nM
[5]
  Log KD α2C: −10.00 ± 0.15
[6]
  IC50 (log) β1, IC50>top concentration used: IC50>−4
[7]
  Log KD α2A: −8.76 ± 0.05
[8]
  Kd: 6.92 nM

## COC1(C2=NCCN2)COc2ccccc2O1 (stereo not shown) [RX821002]
[1]; ratio of KD values
  Selectivity ratio α2A vs α2B (higher affinity for α2A): 4.5
[2]; [20]
  Log KD α2B: −7.67 ± 0.04
[9]
  Kd: 7.24 nM
[3]; [21]
  Log KD β2: −3.95 ± 0.11^app
[4]; ratio of KD values
  Selectivity ratio α2A vs α2C (higher affinity for α2C): 1.1
  Selectivity ratio α2B vs α2C (higher affinity for α2C): 4.9
[5]
  Log KD α2C: −8.28 ± 0.07
[6]; [21]
  Log KD β1: −4.55 ± 0.05
[10]
  Kd: 7.94 nM
[7]
  Log KD α2A: −8.23 ± 0.02
[8]
  Kd: 35.5 nM

## COc1cccc(OC)c1OCCNCC1COc2ccccc2O1 (stereo not shown) [WB4104]
[1]
  Log KD α2A: −7.55 ± 0.05
  Selectivity ratio α2A vs α2B (higher affinity for α2A): 6.0
[2]
  Log KD α2B: −6.88 ± 0.05
[3]; ^3H‐CGP12177, log value
  IC50 (log) β2, IC50>top concentration used: IC50>−4
[4]
  Log KD α2C: −8.17 ± 0.05
  Selectivity ratio α2A vs α2C (higher affinity for α2C): 4.2
  Selectivity ratio α2B vs α2C (higher affinity for α2C): 25.1
[5]
  Log KD α2C: −8.24 ± 0.13
[6]; ^3H‐CGP12177, log value
  IC50 (log) β1, IC50>top concentration used: IC50>−4
[7]
  Log KD α2A: −7.58 ± 0.05
[11]
  Log KD α2B: −6.77 ± 0.05

## CCN1CCCC1CNC(=O)c1cc(S(=O)(=O)CC)c(N)cc1OC (stereo not shown) [amisulpiride]
[1]
  Log KD α2A: −5.11 ± 0.09^app
  Selectivity ratio α2A vs α2B (higher affinity for α2A): 2.6
[3]
  Log KD β2: No binding to −4; also recorded: No binding to -4
[4]
  Log KD α2C: −5.57 ± 0.07
  Selectivity ratio α2A vs α2C (higher affinity for α2C): 2.9
  Selectivity ratio α2B vs α2C (higher affinity for α2C): 7.6
[6]
  Log KD β1: No binding to −4; also recorded: No binding to -4
[11]
  Log KD α2B: −4.69 ± 0.13^app
[12]
  Kd: > 1000 nM

## COc1ccccc1OCCNCC(O)COc1cccc2[nH]c3ccccc3c12 (stereo not shown) [carvedilol]
[13]
  Kd: 288 nM
[7]
  Kd: 263 nM

## CN(C)CCCN1c2ccccc2Sc2ccc(Cl)cc21 [chlorpromazine]
[14]; ^3H‐RX821002 membrane binding to human platelets, ref [23]
  Kd: 2240 nM
[14]; ^3H‐RX821002 membrane binding, human receptors expressed in CHO cells, ref [29]
  Kd: 600 nM
[14]; [22]
  Kd: 1010 nM
[14]; [23]
  Kd: 78 nM
[15]
  Kd: 1 nM
[16]; [22]
  Kd: 85 nM
[16]; [23]
  Kd: 41 nM

## COc1ccccc1N1CCN(CC(O)COc2cccc3ccccc23)CC1 (stereo not shown) [naftapidil]
[17]
  α1A‐affinity greater than β2‐affinity: 3 fold
[13]
  Kd: 282 nM
[3]; ^3H‐CGP12177 whole cell binding, log values, mean ± s.e.mean, ^app = apparent KD, 'no binding to' = log top concentration, read-out: Log KD β2 (converted)
  Kd: 35.5 nM
[3]; this study, read-out: β2‐adrenoceptor affinity
  Kd: ~30 nM
[4]; ratio of KD values
  Selectivity ratio α2A vs α2C (higher affinity for α2C): 4.2
  Selectivity ratio α2B vs α2C (higher affinity for α2C): 3.7
[18]
  Kd: 67.6 nM
[19]
  Kd: 1070 nM
[11]
  Kd: 251 nM
[11]; ratio of KD values
  Selectivity ratio α2A vs α2B (higher affinity for α2B): 1.1

Reference: paper PMC8882856, “The affinity and selectivity of α‐adrenoceptor antagonists, antidepressants and antipsychotics for the human α2A, α2B, and α2C‐adrenoceptors and comparison with human α1 and β‐adrenoceptors” (Pharmacology Research & Perspectives, 2022)
